The text below walks through data of patent US8663602B2, “Method for high-throughput screening of compounds and combinations of compounds for discovery and quantification of actions, particularly unanticipated therapeutic or toxic actions, in biological systems” (The Regents of the University of California, priority 2003, dated 2014).

Data set [1] in a line: Food intake and body weight of mice on 2H2O. Format: in vivo. To be noted: 0.012 ml/gm injection then 4% 2H2O in drinking water. The procedure: Mice were injected with ^2H2O (deuterated water) 0.012 ml/gm. […] Twenty-one days following the start of ^2H2O administration, mice were fasted for four hours, anesthetized with isoflurane and exsanguinated via heart puncture.
The nature of data set [2]: Tolerability of maintained 2H2O body water enrichment. Format: in vivo, humans. Particulars: 1-10% of body water labeled, weeks or months; >100 people; rapid changes in enrichment prevented. An excerpt: Relatively high body water enrichments of ^2H2O (e.g., 1-10% of the total body water is labeled) may be achieved relatively inexpensively using the techniques of the invention. This water enrichment is relatively constant and stable as these levels are maintained for weeks or months in humans and in experimental animals without any evidence of toxicity. This finding in a large number of human subjects (>100 people) is contrary to previous concerns about vestibular toxicities at high doses of ^2H2O. The Applicant has discovered that as long as rapid changes in body water enrichment are prevented (e.g., by initial administration in small, divided doses), high body water enrichments of ^2H2O can be maintained with no toxicities. For example, the low cost of commercially available ^2H2O allows long-term maintenance of enrichments in the 1-5% range at relatively low expense (e.g., calculations reveal a lower cost for 2 months labeling at 2% ^2H2O enrichment, and thus 7-8% enrichment in the alanine precursor pool, than for 12 hours labeling of ^2H-leucine at 10% free leucine enrichment, and thus 7-8% enrichment in leucine precursor pool for that period).

In data set [3] the test system is liver cell. Briefly: Liver cell proliferation in mice during griseofulvin administration (2H2O labeling). To be noted: 1% griseofulvin in chow (low dose, NOEL), 5 days. Format: in vivo. The protocol:
Cell proliferation was measured as described, supra.

Data set [4] in a line: Plasma liver enzymes in mice given griseofulvin. Format: in vivo. Particulars: 1% dose; data not shown.
Data set [5] deals with mammary epithelial cell. Briefly: Mammary epithelial cell (MEC) proliferation in intact and ovariectomized rats by 2H2O labeling, GC/MS. Particulars: for MEC proliferation: all doses, treated and labeled for 7 days, in the presence or absence of estrogen; for MEC proliferation rates: even the lowest dose; for mammary epithelial cell proliferation: intact female rats and ovariectomized rats, very low doses. Format: in vivo, Sprague-Dawley rats.

The test system of data set [6] is neuroprogenitor cells. Particulars: chronic exposure to LPS; Ekdahl et al. 2003; cited from earlier work.
Data set [7] relates to neurons. Briefly: Neuron turnover (fractional replacement) in mice by 2H2O labeling and GC/MS of DNA from isolated neurons. Format: in vivo. The protocol:
Groups of mice (n=5/group) were given a bolus of ^2H2O (Spectra Isotopes, Columbia, Md.) to 5% ^2H2O in body water and were given 8% ^2H2O as drinking water. Mice were maintained on ^2H2O for 45 days, during which period they also received injections every other day of either lipopolysaccharide (LPS) (Sigma, St. Louis, Mo.) in saline at a dose of 1 or 4 mg/kg body weight, or no injection.
Mice were euthanized with carbon dioxide, and their brains were removed. Hippocampi were dissected out, trypsinized, and stained with tetanus toxoid (Ttx), a specific marker for neurons, and then stained with a FITC labeled anti-Ttx antibody (Roche, Basel Switzerland). […]

Data set [8] has as its system adipocytes. Briefly: Adipocyte proliferation in ob/ob mice by 2H2O labeling of adipose cell DNA. Particulars: murine leptin 2 μg/day s.c. osmotic pump, 21 days 2H2O. Format: in vivo. An excerpt:
Four week old, female, C57/bl6j mice (Jackson Labs Bar Harbor, […].) were studied: C57/bl6j ^+/? controls (con), ad libitum fed C57/bl6j^lep-/lep- (ob/ob), leptin treated ob/ob (ob-lep) and food restricted ob/ob (ob-r). Mice were housed individually in hanging wire cages and fed AIN 93 purified diets (Bio Serv, Frenchtown, N.J.). Mice were given 3 days to acclimate to the environment, after which mice grew normally. All treatments and interventions began 5 days prior to the start of labeling with ^2H2O.
Ob-lep mice received murine leptin subcutaneously at a dose of 2 μg/day (Amgen, Thousand Oaks Calif.) via a 28 day Alzet mini osmotic pump (Alza Corp. Palo Alto Calif.).
Mice were injected with ^2H2O (deuterated water) 0.012 ml/gm. […]
The frozen slurry of adipocytes was lyophilized, the dry weight of the sample was determined and then the samples were digested and DNA isolated as described elsewhere (Neese, R. A. et al. Advances in the Stable Isotope-Mass Spectrometric Measurement of DNA Synthesis and Cell Proliferation. Anal Biochem 298, 189-195. (2001)) using Quiagen DNeasy tissue kits. The yield of DNA from each sample was determined with a Pharmacia Biotec Genequant II spectrophotometer. […]
PTA samples were analyzed for incorporation of deuterium on a HP model 5973 MS with a 6890 GC and auto-sampler (Agilent, Palo Alto, Calif.). […]

Entries after “also recorded” stand apart in the source; their conditions may differ.

With `[2H]O[2H]` [^2H2O, deuterated water], in data set [1], the “food intake or body weight” value is on record as “no impact on food intake or body weight”. The “toxicity of maintained body water enrichment” value in data set [2] was “no toxicities”.
As to `COC1=CC(=O)C[C@@H](C)[C@]12Oc1c(Cl)c(OC)cc(OC)c1C2=O` [griseofulvin], the liver cell proliferation result in data set [3] is listed as “increased liver cell proliferation”. Besides, the plasma liver enzymes result in data set [4] was “did not induce elevated levels of plasma liver enzymes”.
As for `O=C(c1ccc(OCCN2CCCCC2)cc1)c1c(-c2ccc(O)cc2)sc2cc(O)ccc12` [raloxifene], in data set [5], the MEC proliferation result is given as “Significant reductions of MEC proliferation”, the MEC proliferation rates result is “efficacious anti-proliferative agents” and the “mammary epithelial cell proliferation” value is “decrease in mammary epithelial cell proliferation”.
With `CC/C(=C(\c1ccccc1)c1ccc(OCCN(C)C)cc1)c1ccccc1` [tamoxifen], in data set [5], the MEC proliferation entry is on record as “Significant reductions of MEC proliferation”, the MEC proliferation rates result is on record as “efficacious anti-proliferative agents” and the “mammary epithelial cell proliferation” value was “decrease in mammary epithelial cell proliferation”.
With lipopolysaccharide [LPS], the neurogenesis entry in data set [6] is “neurogenesis was observed to decrease”. In addition, in data set [7] (LPS 1 or 4 mg/kg injected every other day, 45 days with 2H2O, vs control, p<0.05, dose dependent), the “neuron turnover (fractional replacement of neurons)” value is given as “statistically significant increase in neuron turnover; also recorded: turnover more rapidly”. In data set [7] (after exposure to LPS, control approximately 7%), the “calculated fractional synthesis rate (f) of new neurons” value is about 14%.

B1: leptin: murine leptin (Amgen) given subcutaneously via osmotic pump (protein, UniProt P41160 22-167, looked up)
Leptin: VPIQKVQDDTKTLIKTIVTRINDISHTQSVSAKQRVTGLDFIPGLHPILSLSKMDQTLAVYQQVLTSLPSQNVLQIANDLENLRDLLHLLAFSKSCSLPQTSGLQKPESLDGVLEASLYSTEVVALSRLQGSLQDILQQLDVSPEC
For B1, in data set [8], the “adipocyte proliferation (fat cell proliferation)” value is listed as “decrease in adipocyte proliferation”.
